Tests used:
[1] = target: T1, IRK1 L245W mutant channel (Mus musculus, UniProt P35561, L245W); test: whole-cell patch clamp, IRK1 L245W mutant channel; assay type: cell-based; conditions: equimolar 50 mM alcohol series
T1 construct: expressed in transfected cells; host or cells: HEK293 / HEK293T
T1 sequence (P35561 1-428 L245W): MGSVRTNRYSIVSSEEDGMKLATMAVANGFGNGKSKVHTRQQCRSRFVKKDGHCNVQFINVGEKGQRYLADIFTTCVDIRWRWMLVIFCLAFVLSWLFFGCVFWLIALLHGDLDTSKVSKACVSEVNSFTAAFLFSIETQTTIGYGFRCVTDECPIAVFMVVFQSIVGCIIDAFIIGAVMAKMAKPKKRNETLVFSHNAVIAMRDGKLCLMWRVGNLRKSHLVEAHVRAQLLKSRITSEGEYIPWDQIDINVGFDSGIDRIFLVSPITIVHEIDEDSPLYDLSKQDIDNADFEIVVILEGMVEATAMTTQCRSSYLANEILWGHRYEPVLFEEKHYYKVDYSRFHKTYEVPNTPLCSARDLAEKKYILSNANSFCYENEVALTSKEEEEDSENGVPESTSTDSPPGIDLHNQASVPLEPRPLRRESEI
Description: Point mutations were introduced by Quickchange site directed mutagenesis kit (Stratagene). The GIRK2 PIP mutant was generated by overlap-PCR method. […] Mutations were confirmed by automated DNA sequencing methods. […] Cells were plated in a 12 well dish, and were transiently transfected using Lipofectamine 2000 (Invitrogen). After 12-24 hrs, cells were re-plated to 12-mm glass coverslips coated with poly-D-[…] microgram/ml). […] The cells were co-transfected with 0.04 micrograms of eYFP cDNA to identify transfected cells. 0.8 micrograms of Muscarinic Receptor 2 (M2R) was also co-transfected for experiments with Carbachol. […] Whole-cell patch clamp recordings were performed 24-72 hrs after transfection. […] Alcohols, 5 μM Carbachol, and 1 mM BaCl2 (diluted in 20K solution) were applied from outside the cell with the rapid perfusion system (Warner Instruments). […] Current-voltage relationships also were obtained from the ramp protocol. This protocol was used to measure the inwardly rectifying currents at -100 mV and to ensure stability of recording by monitoring a reversal potential and inward rectification. […] Alcohol and Carbachol modulated currents were measured by averaging two consecutive current readings upon reaching steady state, and subtracting the averaged basal current before and after the application of modulator.

[2] = target: T2, GIRK2 channel (wild type) (Mus musculus, UniProt P48542); test: whole-cell patch clamp, HEK293T cells transfected with GIRK2; assay type: cell-based; conditions: for desensitization of induced GIRK2 current in cells co-transfected with M2R and myristylated-phosducin / activation of wildtype GIRK2, percentage change from Ba++ sensitive basal current: 100 mM alcohols; for desensitization of induced GIRK2 current in cells co-transfected with M2R and myristylated-phosducin: 5 uM Carbachol
T2 construct: expressed in transfected cells; host or cells: HEK293T
T2 sequence (P48542 1-425): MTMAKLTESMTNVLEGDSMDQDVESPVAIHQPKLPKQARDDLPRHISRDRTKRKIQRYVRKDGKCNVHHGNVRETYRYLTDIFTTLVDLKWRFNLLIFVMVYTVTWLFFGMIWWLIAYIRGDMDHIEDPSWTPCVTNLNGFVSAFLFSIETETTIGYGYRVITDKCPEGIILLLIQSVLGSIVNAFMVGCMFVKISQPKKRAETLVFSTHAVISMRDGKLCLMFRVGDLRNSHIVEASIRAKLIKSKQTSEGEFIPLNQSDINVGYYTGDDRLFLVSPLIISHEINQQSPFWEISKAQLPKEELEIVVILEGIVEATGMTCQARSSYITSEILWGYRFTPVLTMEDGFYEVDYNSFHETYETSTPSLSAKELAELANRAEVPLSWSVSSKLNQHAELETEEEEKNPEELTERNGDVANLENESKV
From the text: GIRK2c, GIRK4, IRK1, M2R and m-Phosducin were subcloned into PCDNA3.1 vector (Invitrogen). Point mutations were introduced by Quickchange site directed mutagenesis kit (Stratagene). The GIRK2 PIP mutant was generated by overlap-PCR method. Briefly, amino acid 216-NLRKSHL-222 (SEQ ID NO: 25) of IRK1 was swapped into 228-DLRNSHL-234 (SEQ ID NO: 26) of GIRK2, in the region designated βC-βD loop in the crystal structure. Mutations were confirmed by automated DNA sequencing methods.
HEK 293T cells were cultured in DMEM supplemented with 10% FBS, and 1× Glutamax (Invitrogen) in a humidified 37° incubator with 5% CO2. Cells were plated in a 12 well dish, and were transiently transfected using Lipofectamine 2000 (Invitrogen). After 12-24 hrs, cells were re-plated to 12-mm glass coverslips coated with poly-D-Lysine (20 microgram/ml).
HEK293 cells were transfected with 0.2 micrograms of channel cDNA. The cells were co-transfected with 0.04 micrograms of eYFP cDNA to identify transfected cells. 0.8 micrograms of Muscarinic Receptor 2 (M2R) was also co-transfected for experiments with Carbachol. For experiments with and without m-phosducin, 0.8 ug of m-phosducin cDNA was used versus a PCDNA3.1 vector control.
Whole-cell patch clamp recordings were performed 24-72 hrs after transfection. Borosilicate glass electrodes (Warner Instruments) of […] filled with intracellular solution (130 mM KCl, 20 mM NaCl, 5 mM EGTA, 2.56 mM K2ATP, 5.46 mM MgCl2, 0.30 mM Li2GTP, and 10 mM HEPES (pH 7.4)) was used. Membrane currents were recorded using Axopatch 200B (Axon Instruments) amplifier, adjusted electronically for cell capacitance and series resistance (80-100%), filtered at 1 kHz with an 8-pole Bessel filter and digitized at 5 kHz with a Digidata 1200 interface (Axon Instruments). The cells rapidly perfused with a 20 mM K^+ (20K) solution (20 mM KCl, 140 mM NaCl, 0.5 mM CaCl2, 2 mM MgCl2 and 10 mM HEPES (pH7.4)). Alcohols, 5 μM Carbachol, and 1 mM BaCl2 (diluted in 20K solution) were applied from outside the cell with the rapid perfusion system (Warner Instruments). Whole-cell currents were measured using a ramp protocol that holds at −40 mV, steps to −100 mV then ramps to +50 mV and repeats every 2 seconds. Current-voltage relationships also were obtained from the ramp protocol. This protocol was used to measure the inwardly rectifying currents at −100 mV and to ensure stability of recording by monitoring a reversal potential and inward rectification. Current density was measured by dividing inward current at −100 mV by membrane capacitance that was compensated during the recording. Basal currents were measured as the Ba^++ blocked inward currents at −100 mV. Alcohol and Carbachol modulated currents were measured by averaging two consecutive current readings upon reaching steady state, and subtracting the averaged basal current before and after the application of modulator. Pooled data are presented as Mean±SEM and evaluated for statistical significance by a 1-way ANOVA, followed by Bonferroni's multiple comparison post-hoc test.

Compound | inhibition of IRK1 L245W mutant channel, percentage inhibition [1] [%] | activation of wildtype GIRK2, percentage change from Ba++ sensitive basal current ([2]; n=32) [%] | percent change of basal current, GIRK2 (positive = activation) ([2]; 100 mM MPD, -100 mV, n=5) [%] | concentration inducing a noticeable activation of GIRK currents ([2]; dose response, GIRK2) [mM] | G-protein activation of wildtype GIRK2 by Carbachol, percentage change from basal current ([2]; 5 μM Carbachol, M2R co-transfected, n=32) [%] | desensitization of induced GIRK2 current in cells co-transfected with M2R and myristylated-phosducin [2]
1-propanol [1-PrOH] | −8±1 | 486±34 |  |  |  | no desensitization
CC(O)CC(C)(C)O (racemic) [MPD, 2-methyl-2,4-pentanediol] | −27±2 | 305±19 | 246±26.7 | 10 |  | no desensitization
CCO [EtOH, ethanol] | −3±1 | 119±5 |  |  |  | no desensitization

Continued, in another order:

inhibition of IRK1 L245W mutant channel, percentage inhibition [1] [%] | activation of wildtype GIRK2, percentage change from Ba++ sensitive basal current ([2]; n=32) [%] | percent change of basal current, GIRK2 (positive = activation) ([2]; 100 mM MPD, -100 mV, n=5) [%] | concentration inducing a noticeable activation of GIRK currents ([2]; dose response, GIRK2) [mM] | G-protein activation of wildtype GIRK2 by Carbachol, percentage change from basal current ([2]; 5 μM Carbachol, M2R co-transfected, n=32) [%] | Compound | desensitization of induced GIRK2 current in cells co-transfected with M2R and myristylated-phosducin [2]
−20±2 |  |  |  |  | 1-butanol [1-BuOH] | 
 |  |  |  | 928±141 | C[N+](C)(C)CCOC(N)=O [Carbachol] | rapid activation and desensitization

From patent US8097422B2, “Kir channel modulators” (Salk Institute for Biological Studies, priority 2007, dated 2012)
